From patent US20220184020A1, “Polyphenols as Modulators of Platelet Function” (Northeastern University, priority 2019, published 2022)

Columns and labels:
[1] = rat models of ischemia/reperfusion injury; cited from earlier work
platelets [2] = assay: Platelet dense granule release (Chrono-Lume); assay type: cell-based, human; details: induced by CRPXL, TRAP-6 and U46619; RA pre-treatment 1 hour
Procedure: To validate the predictive power of the developed framework, direct experimental evidence of the predicted mechanistic role of Rosmarinic acid (RA) in VD was sought. […] Therefore, whether RA influenced platelet activation in vitro was evaluated. As platelets can be stimulated through different activation pathways, RA effects can, in principle, occur in any of them. To test these different possibilities, platelets were pretreated with RA and then activated with: 1) glycoprotein VI by collagen or collagen-related peptide (Collagen/CRPXL); 2) protease-activated receptors-1,4 by thrombin receptor activator peptide-6 (TRAP-6); 3) prostanoid thromboxane receptor by the thromboxane A2 analogue (U46619); and 4) P2Y1/12 receptor stimulation by adenosine diphosphate (ADP). […] Platelet aggregation was measured by turbidimetric aggregometry. […] Platelet aggregation was monitored for 6 minutes at 37° C. with a stir speed of 1000 rpm and the maximum extend of aggregation recorded using AGGRO/LINK®8 software. In some cases, dense granule release was simultaneously recorded by supplementing samples with Chrono-Lume® (Chrono-Log®, 395) according to the manufacturer's instructions.

platelets [3] = assay: Integrin αIIbβ3 activation (fibrinogen binding); assay type: cell-based, human; details: in response to U46619; RA pre-treatment 1 hour
Procedure: To validate the predictive power of the developed framework, direct experimental evidence of the predicted mechanistic role of Rosmarinic acid (RA) in VD was sought. […] Therefore, whether RA influenced platelet activation in vitro was evaluated. As platelets can be stimulated through different activation pathways, RA effects can, in principle, occur in any of them. To test these different possibilities, platelets were pretreated with RA and then activated with: 1) glycoprotein VI by collagen or collagen-related peptide (Collagen/CRPXL); 2) protease-activated receptors-1,4 by thrombin receptor activator peptide-6 (TRAP-6); 3) prostanoid thromboxane receptor by the thromboxane A2 analogue (U46619); and 4) P2Y1/12 receptor stimulation by adenosine diphosphate (ADP). When the network distance between each stimulant receptor and the RA-VD-platelet module (FIG. 11A) was compared, it was observed that the receptors for Collagen/CRPXL, TRAP-6, and U46619 are closer than the random expectation, while the receptor for ADP is more distant (FIG. 11B). It is expected that platelets would be most affected by RA when treated with stimulants whose receptors are most proximal to the RA-VD-platelet module, i.e. Collagen/CRPXL, TRAP-6, and U46619. […] Percent-positive cells were determined by gating on fluorescence intensity compared to unstimulated samples.

MCF7 cell line = details: MCF7 after treatment with RA; versus all other genes; cited from earlier work
A549 = A549 after treatment with RA; versus all other genes; cited from earlier work

Question: For `O=C(/C=C/c1ccc(O)c(O)c1)O[C@H](Cc1ccc(O)c(O)c1)C(=O)O` [rosmarinic acid], which cardiac function [1] is on record?
Answer: restore cardiac function

Question: And the dense granule secretion (platelets [2])?
Answer: impairs

Question: What about the “integrin αIIbβ3 activation” value (platelets [3]) of the same compound?
Answer: dampened

Question: What about the “perturbation scores for genes directly regulated by NFE2L2” value (MCF7 cell line) of the same compound?
Answer: higher perturbation scores

Question: And the “perturbation scores for genes directly regulated by NFE2L2” value (A549)?
Answer: higher perturbation scores
